Assay results from the supplement of paper PMC10307832.

Columns and labels:
Assay in all cases: relative viability (nuclei count vs DMSO), 5 days (fraction); higher = more cells survive
Carboplatin + OSI-027 = compound: C1CC(C1)(C(=O)O)C(=O)O.[NH2-].[NH2-].[Pt+2] [Carboplatin] + COc1cccc2cc(-c3nc([C@H]4CC[C@H](C(=O)O)CC4)n4ncnc(N)c34)[nH]c12 [OSI-027] (partner 0.5 µM)
Procedure, shortened: (§1)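 Values are medians from duplicate plates. Each reflects relative viability, defined as the nuclei count of treated wells over that of vehicle wells. Lung cancer cell lines in 1536-well plates were pin-tool dosed one day after seeding with one drug alone or with a fixed anchor-drug dose plus five library-drug doses (not always all listed) in √10 steps, then fixed, stained and imaged at 4× after 5 days.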

Carboplatin + Vorinostat = compound: C1CC(C1)(C(=O)O)C(=O)O.[NH2-].[NH2-].[Pt+2] [Carboplatin] + O=C(CCCCCCC(=O)Nc1ccccc1)NO [Vorinostat] (partner 1 µM)
Procedure, shortened: as §1

GSK126 + OSI-027 = compound: CC[C@H](C)N1C=C(C2=C(C=C(C=C21)C3=CN=C(C=C3)N4CCNCC4)C(=O)NCC5=C(C=C(NC5=O)C)C)C [GSK126] + COc1cccc2cc(-c3nc([C@H]4CC[C@H](C(=O)O)CC4)n4ncnc(N)c34)[nH]c12 [OSI-027] (partner 0.5 µM)
Procedure, shortened: as §1

MLN4924 + Alpelisib = compound: NS(=O)(=O)OC[C@@H]1C[C@@H](n2ccc3c(N[C@H]4CCc5ccccc54)ncnc32)C[C@@H]1O [MLN4924] + Cc1nc(NC(=O)N2CCC[C@H]2C(N)=O)sc1-c1ccnc(C(C)(C)C(F)(F)F)c1 [Alpelisib] (partner 2 µM)
Procedure, shortened: as §1

Cell Line | relative viability (Carboplatin + OSI-027; first compound 0.08 µM) | relative viability (Carboplatin + OSI-027; first compound 0.253 µM) | relative viability (Carboplatin + OSI-027; first compound 2.53 µM) | relative viability (Carboplatin + OSI-027; first compound 8 µM) | relative viability (Carboplatin + Vorinostat; first compound 0.08 µM) | relative viability (Carboplatin + Vorinostat; first compound 0.253 µM) | relative viability (Carboplatin + Vorinostat; first compound 0.8 µM) | relative viability (Carboplatin + Vorinostat; first compound 2.53 µM) | relative viability (Carboplatin + Vorinostat; first compound 8 µM) | relative viability (GSK126 + OSI-027; first compound 0.08 µM) | relative viability (GSK126 + OSI-027; first compound 0.253 µM) | relative viability (GSK126 + OSI-027; first compound 0.8 µM) | relative viability (GSK126 + OSI-027; first compound 2.53 µM) | relative viability (GSK126 + OSI-027; first compound 8 µM) | relative viability (MLN4924 + Alpelisib; first compound 0.04 µM) | relative viability (MLN4924 + Alpelisib; first compound 0.1265 µM) | relative viability (MLN4924 + Alpelisib; first compound 0.4 µM) | relative viability (MLN4924 + Alpelisib; first compound 1.265 µM) | relative viability (MLN4924 + Alpelisib; first compound 4 µM) | relative viability (Carboplatin + OSI-027; first compound 0.8 µM)
EKVX | 0.739 | 0.736 | 0.674 | 0.683 | 0.746 | 0.659 | 0.682 | 0.676 | 0.693 | 0.753 | 0.679 | 0.669 | 0.822 | 0.781 | 0.926 | 0.748 | 0.519 | 0.164 | 0.144 | –
NCI-H596 | 0.909 | 0.803 | 0.654 | 0.514 | 0.669 | 0.654 | 0.509 | 0.368 | 0.467 | 0.895 | 0.701 | 0.798 | 0.754 | 0.714 | 0.468 | 0.61 | 0.426 | 0.664 | 0.52 | 0.781
NCI-H358 | 1 | 0.878 | 0.843 | 0.611 | 0.735 | 0.668 | 0.681 | 0.664 | 0.53 | 1 | 0.85 | 0.812 | 0.904 | 0.897 | 1.01 | 0.899 | 0.34 | 0.189 | 0.162 | 0.8
LOU-NH91 | 0.811 | 0.72 | 0.761 | 0.73 | 1.03 | 0.937 | 0.949 | 0.894 | 0.734 | 0.728 | 0.735 | 0.751 | 0.681 | 0.787 | 0.804 | 1.02 | 0.855 | 0.407 | 0.476 | 0.75
